From patent publication EP3884963A1, “NAPROXEN/DEXAMETHASONE-BASED NANOPARTICLES” (Consejo Superior de Investigaciones Científicas (CSIC), priority 2020, dated 2021)

Test system: RAW264.7 macrophages
Experiment: In vitro viability assay of NPs (AlamarBlue)
Assay type: cell-based, murine
Settings: RAW264.7, 24 h, all concentrations tested (NPs 0.011-0.25 mg/ml; free Dx at the concentration encapsulated); % respect to the control
Experimental: The RAW264.7 (murine macrophages) cell line was purchased from Sigma-Aldrich. RAW264.7 cells are an in vitro model useful to test the potential anti-inflammatory activity of new drugs. Cells were maintained over permissive conditions in high-glucose Dulbecco's modified Eagle's medium (DMEM; Sigma, Saint Louis, MO, USA) supplemented with 10% fetal bovine serum (FBS; Gibco, BRL), 2% L-Glutamine (Sigma, Saint Louis, MO, USA) and Penicillin-G (Sigma, Saint Louis, MO, USA) at 37 °C in a humidified incubator with 10% CO2.
2 x 10^5 live cells/mL (100 µL per well) were seeded in a 96 well-plate under permissive conditions. After 24 h, cells were exposed to different concentrations of free Dx and Dx-loaded or unloaded NSAID-based NPs suspension (0.25, 0.125, 0.09, 0.045, 0.023 and, 0.011 mg/ml) and cell viability was determined after 24 h of incubation with NPs. AlamarBlue (Invitrogen) was used to determine cell viability. Absorbance at 570 nm was measured by a Multi-Detection Microplate Reader Synergy HT (BioTek Instruments; Vermont, USA). The treatments were done in replicates (n = 8). Results of the experiments were expressed as percentage of relative cell viability (% respect to the control).

Q: With `C[C@@H]1C[C@H]2[C@@H]3CCC4=CC(=O)C=C[C@]4(C)[C@@]3(F)[C@@H](O)C[C@]2(C)[C@@]1(O)C(=O)CO` [free Dx, Dexamethasone] as the compound, how does the cell viability read?
A: higher than 70%
